Columns and labels:
human mGluR2 receptor = target: T1, human mGluR2 receptor (Homo sapiens, UniProt Q14416); assay: [35S]GTPγS binding assay (PAM assay, membranes from CHO cells transfected with the human mGluR2 receptor); assay type: biochemical; conditions: in presence of glutamate at EC20; pEC50 = -log EC50 (mol/L); read-out: GTPγS-hR2 PAM pEC50 (converted)
T1 construct: expressed in transfected cells; host or cells: CHO cells (membranes)
Experimental: The [^35S]GTPγS binding assay is a functional membrane-based assay used to study G-protein coupled receptor (GPCR) function whereby incorporation of a non-hydrolysable form of GTP, [^35S]GTPγS (guanosine 5′-triphosphate, labelled with […] ^35S), is measured. The G-protein α subunit catalyzes the exchange of guanosine 5′-diphosphate (GDP) by guanosine triphosphate (GTP) and on activation of the GPCR by an agonist, [^35S]GTPγS, becomes incorporated and cannot be cleaved to continue the exchange cycle (Harper (1998) Current Protocols in Pharmacology 2.6.1-10, John Wiley & Sons, Inc.). […] Here we describe the use of the [^35S]GTPγS binding assay using membranes from cells transfected with the human mGluR2 receptor and adapted from Schaffhauser et al. ((2003) Molecular Pharmacology 4:798-810) for the detection of the positive allosteric modulation (PAM) properties of the compounds of this invention.
CHO-cells were cultured to pre-confluence and stimulated with 5 mM butyrate for 24 h, prior to washing in PBS, and then collected by scraping in homogenisation buffer (50 mM Tris-HCl buffer, pH 7.4, 4° C.). Cell lysates were homogenized briefly using an ultra-turrax homogenizer. The homogenate was centrifuged at 16,000 RPM (Sorvall RC-5C plus rotor SS-34) for 10 minutes and the supernatant discarded. The pellet was resuspended in 5 mM Tris-HCl, pH 7.4 and centrifuged again (18,000 RPM, 20 min, 4° C.). The final pellet was resuspended in 50 mM Tris-HCl, pH 7.4 and stored at −80° C. in appropriate aliquots before use. Protein concentration was determined by the Bradford method (Bio-Rad, USA) with bovine serum albumin as standard.
Measurement of mGluR2 positive allosteric modulatory activity of test compounds was performed as follows. Test compounds and glutamate were diluted in assay buffer containing 10 mM HEPES acid, 10 mM HEPES salt, pH 7.4, 100 mM NaCl, 3 mM MgCl2 and 10 μM GDP. Human mGlu2 receptor-containing membranes were thawed on ice and diluted in assay buffer supplemented with 14 μg/ml saponin. Membranes were pre-incubated with compound alone or together with a predefined (˜EC20) concentration of glutamate (PAM assay) for 30 min at 30° C. After addition of [^35S]GTPγS (f.c. 0.1 nM) microplates were shaken briefly and further incubated to allow [^35S]GTPγS incorporation on activation (30 minutes, 30° C.). Final assay mixtures contained 7 μg of membrane protein in 10 mM HEPES acid, 10 mM HEPES salt, pH 7.4, 100 mM NaCl, 3 mM MgCl2,10 μM GDP and 10 μg/ml saponin. Total reaction volume was 200 μl. Reactions were terminated by rapid filtration through Unifilter-96 GF/B filter plates (Packard, Meriden, Conn.) using a 96-well Packard filtermate harvester. Filters were washed 6 times with ice-cold 10 mM NaH2PO4/10 mM Na2HPO4, pH 7.4. Filters were then air-dried, and 40 μl of liquid scintillation cocktail (Microscint-O) was added to each well. Membrane-bound radioactivity was counted in a Microplate Scintillation and Luminescence Counter from Packard.
The concentration-response curves of representative compounds of the present invention—obtained in the presence of EC20 of mGluR2 agonist glutamate to determine positive allosteric modulation (PAM)—were generated using the Lexis software interface (developed at J&J). Data were calculated as % of the control glutamate response, defined as the maximal response that is generated upon addition of glutamate alone. Sigmoid concentration-response curves plotting these percentages versus the log concentration of the test compound were analyzed using non-linear regression analysis. The concentration producing half-maximal effect is then calculated as EC50. The pEC50 values below are calculated as the −log EC50 (wherein EC50 is expressed in mol/L). […]

T1 sequence (Q14416 19-872): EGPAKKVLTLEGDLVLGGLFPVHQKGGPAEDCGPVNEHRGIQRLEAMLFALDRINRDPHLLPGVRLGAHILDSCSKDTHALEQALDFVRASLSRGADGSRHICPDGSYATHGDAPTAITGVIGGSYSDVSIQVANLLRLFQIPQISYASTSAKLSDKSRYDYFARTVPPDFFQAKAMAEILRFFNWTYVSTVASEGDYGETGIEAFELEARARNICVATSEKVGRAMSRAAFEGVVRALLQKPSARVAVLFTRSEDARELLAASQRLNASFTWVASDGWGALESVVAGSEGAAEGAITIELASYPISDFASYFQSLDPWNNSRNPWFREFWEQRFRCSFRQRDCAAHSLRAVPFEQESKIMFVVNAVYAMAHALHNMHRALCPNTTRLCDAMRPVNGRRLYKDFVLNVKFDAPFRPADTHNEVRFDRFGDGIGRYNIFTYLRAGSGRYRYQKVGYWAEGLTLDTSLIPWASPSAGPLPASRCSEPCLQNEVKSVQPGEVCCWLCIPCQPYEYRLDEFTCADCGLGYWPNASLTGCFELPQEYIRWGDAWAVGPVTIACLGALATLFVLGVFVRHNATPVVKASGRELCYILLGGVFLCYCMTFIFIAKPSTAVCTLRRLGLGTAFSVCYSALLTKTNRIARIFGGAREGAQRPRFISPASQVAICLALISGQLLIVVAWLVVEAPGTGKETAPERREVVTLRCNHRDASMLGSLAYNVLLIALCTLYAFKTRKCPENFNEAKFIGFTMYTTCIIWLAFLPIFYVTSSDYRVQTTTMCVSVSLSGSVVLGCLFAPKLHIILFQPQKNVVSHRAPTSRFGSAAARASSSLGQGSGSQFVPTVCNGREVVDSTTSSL

Row | SMILES | EC50 (human mGluR2 receptor) | melting point
1 | Clc1c(-c2ccc3c(ccn3C3CCOCC3)c2)ccn2c(CC3CC3)nnc12 [Compound 2] | 64.6 nM | > 300 °C
2 | FC(F)(F)Cc1nnc2c(Cl)c(-c3ccc4c(ccn4-c4ncccn4)c3)ccn12 [Compound 6] | 33.9 nM | 
3 | CC(C)(O)Cn1ccc2cc(-c3ccn4c(CC5CC5)nnc4c3Cl)ccc21 [Compound 9] | 158 nM | 
4 | O[C@H]1CC[C@H](n2ccc3cc(-c4ccn5c(CC6CC6)nnc5c4Cl)ccc32)CC1 [Compound 10] | 52.5 nM | > 300 °C
5 | Clc1c(-c2cccc3[nH]ccc23)ccn2c(CC3CC3)nnc12 [Compound 13] | 813 nM | > 300 °C
6 | FC(F)(F)c1c(-c2cc(Cl)c3[nH]ccc3c2)ccn2c(CC3CC3)nnc12 [Compound 14] | 11 nM | > 300 °C
7 | Clc1c(-c2ccc3c(ccn3-c3ncccn3)c2)ccn2c(CC3CC3)nnc12 [Compound 15] | 53.7 nM | > 300 °C
8 | Clc1c(-c2ccc3[nH]ccc3c2)ccn2c(CC3CC3)nnc12 [Compound 20] | 251 nM | > 300 °C
9 | CCOCc1nnc2c(Cl)c(-c3cc(Cl)c4[nH]ccc4c3)ccn12 [Compound 23] | 95.5 nM | 
10 | FC(F)(F)c1c(-c2cnc3[nH]ccc3c2)ccn2c(CC3CC3)nnc12 [Compound 24] | 1410 nM | > 300 °C
11 | FC(F)(F)c1c(-c2cnc3c(ccn3CC3CC3)c2)ccn2c(CC3CC3)nnc12 [Compound 25] | 182 nM | > 300 °C
12 | CCOCc1nnc2c(Cl)c(-c3ccc4c(ccn4-c4cccnc4)c3)ccn12 [Compound 26] | 182 nM | 233.2 °C
13 | CCOCc1nnc2c(Cl)c(-c3ccc4[nH]ccc4c3)ccn12 [Compound 29] | 1260 nM | 176.4 °C
14 | CCOCc1nnc2c(C(F)(F)F)c(-c3ccc4c(ccn4-c4cccnc4)c3)ccn12 [Compound 30] | 33.9 nM | 182.4 °C
15 | Cc1ccc(-n2ccc3cc(-c4ccn5c(CC6CC6)nnc5c4C)ccc32)cn1 [Compound 35, 8-Methyl-3-cyclopropylmethyl-7-[1-(2-methylpyridin-5-yl)-1H-indol-5-yl]-[1,2,4]triazolo[4,3-a]pyridine] | 70.8 nM | 263.3 °C
16 | Cc1ccc(-n2ccc3cc(-c4ccn5c(CC6CC6)nnc5c4C(F)(F)F)ccc32)cn1 [Compound 36] | 9.33 nM | 204 °C
17 | Cc1ccc(-n2ccc3cc(-c4ccn5c(CC6CC6)nnc5c4C4CC4)ccc32)cn1 [Compound 37] | 39.8 nM | > 300 °C
18 | Cc1c(-c2cnc3c(ccn3CC3CC3)c2)ccn2c(CC3CC3)nnc12 [Compound 40] | 407 nM | > 300 °C
19 | Clc1c(-c2cnc3c(ccn3-c3ccccn3)c2)ccn2c(CC3CC3)nnc12 [Compound 41] | 603 nM | > 300 °C
20 | Fc1cnccc1-n1ccc2cc(-c3ccn4c(CC5CC5)nnc4c3Cl)ccc21 [Compound 42, 8-Chloro-3-cyclopropylmethyl-7-[1-(3-fluoro-pyridin-4-yl)-1H-indol-5-yl]-[1,2,4]triazolo[4,3-a]pyridine] | 28.8 nM | > 300 °C
21 | FC(F)(F)c1c(-c2ccc3c(ccn3-c3ccncc3)c2)ccn2c(CC3CC3)nnc12 [Compound 43] | 16.6 nM | > 300 °C
22 | Cc1cc(-n2ccc3cc(-c4ccn5c(CC6CC6)nnc5c4C(F)(F)F)ccc32)ccn1 [Compound 46] | 8.13 nM | > 300 °C
23 | Fc1cc(-c2ccn3c(CC4CC4)nnc3c2Cl)cc2ccn(-c3cccnc3)c12 [Compound 48] | 46.8 nM | 195.6 °C

The next lines start with the values.

Row | EC50 (human mGluR2 receptor) | melting point | SMILES
24 | 43.7 nM | > 300 °C | FC(F)(F)Cc1nnc2c(Cl)c(-c3ccc4c(ccn4-c4ccccn4)c3)ccn12 [Compound 1]
25 | 28.2 nM | 193.1 °C | FC(F)(F)c1c(-c2ccc3c(ccn3C3CCOCC3)c2)ccn2c(CC3CC3)nnc12 [Compound 3]
26 | 11.5 nM |  | FC(F)(F)c1c(-c2ccc3c(ccn3-c3ncccn3)c2)ccn2c(CC3CC3)nnc12 [Compound 7]
27 | 25.1 nM | 233.5 °C | Clc1cc(-c2ccn3c(CC4CC4)nnc3c2Cl)cc2cc[nH]c12 [Compound 8]
28 | 871 nM |  | Clc1c(-c2ccc3nn(Cc4cccnc4)cc3c2)ccn2c(CC3CC3)nnc12 [Compound 11]
29 | 67.6 nM | 197.1 °C | Clc1c(-c2ccc3c(ccn3-c3ccccn3)c2)ccn2c(CC3CC3)nnc12 [Compound 16]
30 | 288 nM | 235 °C | CCOCc1nnc2c(Cl)c(-c3ccc4c(ccn4-c4ccccn4)c3)ccn12 [Compound 18]
31 | 126 nM |  | CCOCc1nnc2c(Cl)c(-c3ccc4c(ccn4-c4ncccn4)c3)ccn12 [Compound 19]
32 | 23.4 nM | 137.2 °C | Cc1ccc(-n2ccc3cc(-c4ccn5c(CC6CC6)nnc5c4Cl)ccc32)cn1 [Compound 21, 8-Chloro-3-cyclopropylmethyl-7-[1-(2-methylpyridin-5-yl)-1H-indol-5-yl]-[1,2,4]triazolo[4,3-a]pyridine]
33 | 324 nM | 184.7 °C | Clc1c(-c2cnc3c(ccn3CC3CC3)c2)ccn2c(CC3CC3)nnc12 [Compound 22, 8-Chloro-3-cyclopropylmethyl-7-(1-cyclopropylmethyl-1H-pyrrolo[2,3-b]pyridin-5-yl)-[1,2,4]triazolo[4,3-a]pyridine]
34 | 56.2 nM | 188.9 °C | CCOCc1nnc2c(Cl)c(-c3ccc4c(ccn4-c4ccc(C)nc4)c3)ccn12 [Compound 27]
35 | 117 nM | 235.5 °C | Fc1cc(-c2ccn3c(CC4CC4)nnc3c2Cl)cc2cc[nH]c12 [Compound 28]
36 | 17.4 nM | 163.1 °C | CCOCc1nnc2c(C(F)(F)F)c(-c3ccc4c(ccn4-c4ccc(C)nc4)c3)ccn12 [Compound 32]
37 |  | 200.1 °C | CCOCc1nnc2c(C(F)(F)F)c(-c3ccc4[nH]ccc4c3)ccn12 [Compound 33]
38 |  | 144.3 °C | FC(F)(F)c1c(-c2ccc3c(ccn3-c3cccnc3)c2)ccn2c(CC3CC3)nnc12 [Compound 34]
39 | 17 nM | > 300 °C | Cc1ccc(-n2ccc3cc(-c4ccn5c(CC6CC6)nnc5c4C(F)(F)F)cc(F)c32)cn1 [Compound 38]
40 | 126 nM | > 300 °C | Clc1c(-c2cnc3c(ccn3CC3CCC3)c2)ccn2c(CC3CC3)nnc12 [Compound 39]
41 | 66.1 nM | > 300 °C | Clc1c(-c2ccc3c(ccn3-c3ccncc3)c2)ccn2c(CC3CC3)nnc12 [Compound 44]
42 | 39.8 nM | > 300 °C | Cc1cc(-n2ccc3cc(-c4ccn5c(CC6CC6)nnc5c4Cl)ccc32)ccn1 [Compound 47]
43 | 174 nM | 108.5 °C | CCOCc1nnc2c(C)c(-c3ccc4c(ccn4-c4ccc(C)nc4)c3)ccn12 [Compound 49]
